For 1 compound, Minimal inhibitory concentration results are on record in patent US4537956A, “Antibiotics X-14889 A, C and D” (Hoffmann-La Roche Inc., priority 1983, dated 1985).

Assay in all cases: MIC in vitro, agar diffusion well method
Assay type in all cases: cell-based

The subject of assay [1] is Mycobacterium phlei ATCC 355. Conditions: Mycobacterium phlei ATCC 355, agar diffusion well method. The text has this:
(§1) Minimal inhibitory concentration (mcg/ml)
(§2) *As determined by an agar diffusion well method.
Background: Agar diffusion results depend on both activity and mobility in agar.

Assay [2] relates to Bacillus subtilis ATCC 558. Conditions: Bacillus subtilis ATCC 558, agar diffusion well method.
From the text: as §1, §2

Assay [3] deals with Streptomyces cellulosae ATCC 3313. Conditions: Streptomyces cellulosae ATCC 3313, agar diffusion well method.
From the text: as §1, §2

Assay [4] relates to Bacillus sp. TA ATCC 27860. Conditions: Bacillus sp. TA ATCC 27860, agar diffusion well method.
From the text: as §1, §2

The subject of assay [5] is Staphylococcus aureus ATCC 6538P.
From the text: as §1, §2

For assay [6], the system named is Bacillus megaterium ATCC 8011. Conditions: Bacillus megaterium ATCC 8011, agar diffusion well method.
From the text: as §1, §2

The subject of assay [7] is Candida albicans NRRL 477. Conditions: Candida albicans NRRL 477, agar diffusion well method.
From the text: as §1, §2

Assay [8] has as its system Penicillium digitatum ATCC 26821. Conditions: Penicillium digitatum ATCC 26821, agar diffusion well method.
From the text: as §1, §2

For assay [9], the system named is Bacillus sp. E ATCC 27359. Conditions: Bacillus sp. E ATCC 27359, agar diffusion well method.
From the text: as §1, §2

Assay [10] concerns Paecilomyces varioti ATCC 28820. Conditions: Paecilomyces varioti ATCC 28820, agar diffusion well method.
From the text: as §1, §2

Assay [11] relates to Streptococcus faecium ATCC 8043. Conditions: Streptococcus faecium ATCC 8043, agar diffusion well method.
From the text: as §1, §2

For assay [12], the system named is Saccharomyces cerevisiae ATCC 4226. Conditions: Saccharomyces cerevisiae ATCC 4226, agar diffusion well method.
From the text: as §1, §2

Each structure is given as a SMILES string. In brackets after ≈: the same amount, converted by molar mass.

Consider `CC[C@H](C(=O)[C@@H](C)[C@@H](O)[C@H](C)[C@H]1O[C@@](O)(CC)[C@@H](C)C[C@@H]1C)[C@H]1O[C@](C)(C23OC(C)C(CC)(CC2C)O3)C[C@@H]1C` (stereo partly drawn) [Antibiotic X-14889D], for which the Minimal inhibitory concentration in assay [1] is 1000 µg/mL (≈ 1760 µM); in [2], 1000 µg/mL (≈ 1760 µM); in assay [3], 1000 µg/mL (≈ 1760 µM); in assay [4] it was 1000 µg/mL (≈ 1760 µM); in assay [5] it was 125 µg/mL (≈ 221 µM); in assay [6], 1000 µg/mL (≈ 1760 µM). In addition, the Minimal inhibitory concentration in assay [7] came out at 1000 µg/mL (≈ 1760 µM); in assay [8], 1000 µg/mL (≈ 1760 µM); in assay [9] it was 7.9 µg/mL (≈ 13.9 µM); in [10], 1000 µg/mL (≈ 1760 µM); in assay [11], 125 µg/mL (≈ 221 µM); in assay [12] it was 1000 µg/mL (≈ 1760 µM).
